Where a SMILES comes first, the peptide text is derived from it. [ ]: non-standard residue; d: D form. 2Nal = N[C@@H](Cc1ccc2ccccc2c1)C(=O)O
Legend:
Melanocortin receptor 4 [1] = target: T1, Melanocortin receptor 4 (Homo sapiens, UniProt P32245); experiment: Binding affinity to MC4 receptor
Melanocortin receptor 4 [2] = target: T1, Melanocortin receptor 4; experiment: Agonist potency at MC4 receptor; assay type: functional
[3] = target: Melanocyte-stimulating hormone receptor (Homo sapiens, UniProt Q01726); experiment: Binding affinity to MC1 receptor
Melanocortin receptor 3 = Melanocortin receptor 3 (Homo sapiens, UniProt P41968); experiment: Binding affinity to MC3 receptor
Melanocortin receptor 3, sequence (P41968 whole entry): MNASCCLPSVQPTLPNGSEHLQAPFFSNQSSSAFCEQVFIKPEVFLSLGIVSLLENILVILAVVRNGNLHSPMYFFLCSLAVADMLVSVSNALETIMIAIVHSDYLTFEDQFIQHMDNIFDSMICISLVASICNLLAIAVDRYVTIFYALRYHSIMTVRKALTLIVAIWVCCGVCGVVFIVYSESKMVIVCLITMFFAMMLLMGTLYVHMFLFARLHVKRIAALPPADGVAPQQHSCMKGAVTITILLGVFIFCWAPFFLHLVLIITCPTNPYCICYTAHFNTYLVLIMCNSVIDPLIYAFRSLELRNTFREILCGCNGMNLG

Melanocyte-stimulating hormone receptor, sequence (Q01726 whole entry): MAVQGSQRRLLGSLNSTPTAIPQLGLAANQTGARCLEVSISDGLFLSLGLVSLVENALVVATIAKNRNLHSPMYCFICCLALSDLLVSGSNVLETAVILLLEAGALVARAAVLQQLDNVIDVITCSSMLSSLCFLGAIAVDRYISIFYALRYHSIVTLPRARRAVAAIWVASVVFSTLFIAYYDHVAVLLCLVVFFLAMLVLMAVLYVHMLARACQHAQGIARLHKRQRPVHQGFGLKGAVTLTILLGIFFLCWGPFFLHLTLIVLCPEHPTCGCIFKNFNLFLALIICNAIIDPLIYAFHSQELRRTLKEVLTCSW
T1 sequence (P32245 whole entry): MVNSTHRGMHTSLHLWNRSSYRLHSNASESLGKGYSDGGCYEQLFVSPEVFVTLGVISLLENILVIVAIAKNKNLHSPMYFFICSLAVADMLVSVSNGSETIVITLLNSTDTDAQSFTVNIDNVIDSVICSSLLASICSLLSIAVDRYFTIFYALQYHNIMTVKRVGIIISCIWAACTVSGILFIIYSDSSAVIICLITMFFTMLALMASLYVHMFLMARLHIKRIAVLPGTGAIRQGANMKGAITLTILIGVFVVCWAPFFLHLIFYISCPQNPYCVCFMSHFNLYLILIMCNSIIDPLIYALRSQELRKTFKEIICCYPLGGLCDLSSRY

Row | Structure (SMILES) | Ki (Melanocortin receptor 4 [1]) [nM] | EC50 (Melanocortin receptor 4 [2]) [nM] | Emax (Melanocortin receptor 4 [2]) [%] | Ki [3] [nM] | Ki (Melanocortin receptor 3) [nM]
1 | N=C(N)NCCC[C@H]1C[C@@H](OCc2ccccc2)CN1C(=O)[C@H](CC[C@H]1Cc2ccccc2CN1)Cc1ccccc1 | 76 | 142 | 76 | 71 | 382
2 | CNC(=O)[C@H](Cc1ccc2ccccc2c1)NC(=O)[C@H](CCCN=C(N)N)NC(=O)[C@H](CC[C@@H]1Cc2ccccc2CN1)Cc1ccccc1 | 220 | 160 | 77 | 3990 | 2410
3 | CNC(=O)[C@H](Cc1ccc2ccccc2c1)NC(=O)[C@H](CCCN=C(N)N)NC(=O)[C@H](CC[C@H](Cc1ccc(O)cc1)NC(C)=O)Cc1ccc(F)cc1 | 5 | 10 | 91 | 22300 | 6200
4 | CC(=O)N[C@H](Cc1ccc(O)cc1)C(=O)N[C@H](Cc1ccccc1)C(=O)N1C[C@H](OCc2ccccc2)C[C@@H]1CCCN=C(N)N | 10 | 8 | 84 | 9 | 23
5 | CNC(=O)[C@H](Cc1ccc2ccccc2c1)NC(=O)[C@H](CCCN=C(N)N)NC(=O)[C@H](CC[C@H](Cc1ccc(Cl)cc1)NC(C)=O)Cc1ccc(F)cc1 | 214 | 193 | 100 | 12300 | 18000
6 | CNC(=O)[C@H](Cc1ccc2ccccc2c1)NC(=O)[C@H](CCCN=C(N)N)NC(=O)[C@@H](Cc1ccccc1)NC(=O)[C@H](Cc1ccc(O)cc1)NC(C)=O (Ac-Y[dF]R[2Nal]-NHMe) | 104 | 44 |  | 4520 | 1730

Now from value to molecule:

Row | Ki (Melanocortin receptor 4 [1]) [nM] | EC50 (Melanocortin receptor 4 [2]) [nM] | Emax (Melanocortin receptor 4 [2]) [%] | Ki [3] [nM] | Ki (Melanocortin receptor 3) [nM] | Structure (SMILES)
7 | 214 | 38 | 90 | 8560 | 24700 | CNC(=O)[C@H](Cc1ccc2ccccc2c1)NC(=O)[C@H](CCCN=C(N)N)NC(=O)[C@H](CC[C@H](Cc1ccc(O)cc1)NC(C)=O)Cc1ccccc1
8 | 37 | 20 | 102 | 23400 | 55500 | CNC(=O)[C@H](Cc1ccc2ccccc2c1)NC(=O)[C@H](CCCN=C(N)N)NC(=O)[C@H](CC[C@H](Cc1ccccc1)NC(C)=O)Cc1ccc(F)cc1
9 | 24 | 10 | 81 | 2280 | 1630 | CNC(=O)[C@H](Cc1ccc2ccccc2c1)NC(=O)[C@H](CCCN=C(N)N)NC(=O)[C@@H](Cc1ccccc1)NC(=O)[C@@H]1Cc2ccccc2CN1
10 | 13 | 22 | 89 | 30 | 468 | N=C(N)NCCC[C@H]1C[C@@H](OCc2ccccc2)CN1C(=O)[C@@H](Cc1ccccc1)NC(=O)C1Cc2ccccc2CN1 (single isomer, unassigned)
